Values belong to the compound of their own block, whether it stands above or below them. Active and inactive are the calls of the source.
How the values were obtained:
[1] = molecular target: T1, NADPH oxidase 1 (Homo sapiens, UniProt Q9Y5S8); assay: Late-stage luminescence-based cell-based dose response assay to identify inhibitors of NADPH oxidase 1 (NOX1): Purchased analogs 2.; format: functional
T1 sequence (Q9Y5S8 whole entry): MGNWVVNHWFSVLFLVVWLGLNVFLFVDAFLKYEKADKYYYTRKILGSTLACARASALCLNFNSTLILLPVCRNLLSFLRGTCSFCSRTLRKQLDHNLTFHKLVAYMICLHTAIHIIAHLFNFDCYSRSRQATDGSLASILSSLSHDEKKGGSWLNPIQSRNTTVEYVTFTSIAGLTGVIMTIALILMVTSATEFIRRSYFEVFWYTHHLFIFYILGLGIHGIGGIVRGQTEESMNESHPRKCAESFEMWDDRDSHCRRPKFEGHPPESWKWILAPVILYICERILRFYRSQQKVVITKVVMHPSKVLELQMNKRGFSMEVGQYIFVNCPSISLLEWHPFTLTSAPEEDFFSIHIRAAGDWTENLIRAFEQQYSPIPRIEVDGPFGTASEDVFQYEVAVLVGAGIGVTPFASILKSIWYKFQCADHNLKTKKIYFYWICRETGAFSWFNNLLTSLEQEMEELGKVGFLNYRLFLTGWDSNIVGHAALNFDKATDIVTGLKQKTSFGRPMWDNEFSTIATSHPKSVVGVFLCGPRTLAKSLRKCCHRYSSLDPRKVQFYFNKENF

[2] = molecular target: T1, NADPH oxidase 1; assay: Late stage results from the probe development effort to identify inhibitors of NOX1: HEK/293 IC50. [Related pubchem assays: 1796 (Summary AID (NOX1)), 2752 (Primary screen (NOX1 inhibitors, synthesized analogs set 2)), 2664 (Primary screen (NOX1 inhibitors, synthesized analogs)), 1792 (Primary Screen (NOX1)), 2545 (Confirmation screen (NOX1 …; format: functional
[3] = molecular target: T2, Tyrosine-protein phosphatase non-receptor type 7 (Homo sapiens, UniProt P35236); assay: HePTP tyrosine phosphatase activity blockers – biochemical, absorbance, leukemia target, primary screen (AID 521); format: functional
T2 sequence (P35236 whole entry): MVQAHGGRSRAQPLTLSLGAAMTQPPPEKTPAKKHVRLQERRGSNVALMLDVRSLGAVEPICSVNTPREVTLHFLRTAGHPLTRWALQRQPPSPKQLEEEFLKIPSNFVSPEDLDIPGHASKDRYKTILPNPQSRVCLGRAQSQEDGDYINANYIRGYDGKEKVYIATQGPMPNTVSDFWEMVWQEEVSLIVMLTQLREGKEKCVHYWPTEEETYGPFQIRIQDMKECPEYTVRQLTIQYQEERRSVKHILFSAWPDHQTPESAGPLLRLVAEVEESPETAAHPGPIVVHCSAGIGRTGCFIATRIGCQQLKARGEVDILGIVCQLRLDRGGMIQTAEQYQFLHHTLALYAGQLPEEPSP

[4] = molecular target: G-protein coupled receptor 183 (Homo sapiens, UniProt P32249); assay: SAR confirmation of small molecule antagonists of the EBI2 receptor via a luminescent beta-arrestin assa.; format: functional
[5] = molecular target: Phospholipase D2 (Homo sapiens, UniProt O14939); assay: PLD2 Cellular Concentration Response Study.; format: functional
[6] = molecular target: T3, Phospholipase D1 (Homo sapiens, UniProt Q13393); assay: PLD1 Cellular Concentration Response Study.; format: functional
T3 sequence (Q13393 whole entry): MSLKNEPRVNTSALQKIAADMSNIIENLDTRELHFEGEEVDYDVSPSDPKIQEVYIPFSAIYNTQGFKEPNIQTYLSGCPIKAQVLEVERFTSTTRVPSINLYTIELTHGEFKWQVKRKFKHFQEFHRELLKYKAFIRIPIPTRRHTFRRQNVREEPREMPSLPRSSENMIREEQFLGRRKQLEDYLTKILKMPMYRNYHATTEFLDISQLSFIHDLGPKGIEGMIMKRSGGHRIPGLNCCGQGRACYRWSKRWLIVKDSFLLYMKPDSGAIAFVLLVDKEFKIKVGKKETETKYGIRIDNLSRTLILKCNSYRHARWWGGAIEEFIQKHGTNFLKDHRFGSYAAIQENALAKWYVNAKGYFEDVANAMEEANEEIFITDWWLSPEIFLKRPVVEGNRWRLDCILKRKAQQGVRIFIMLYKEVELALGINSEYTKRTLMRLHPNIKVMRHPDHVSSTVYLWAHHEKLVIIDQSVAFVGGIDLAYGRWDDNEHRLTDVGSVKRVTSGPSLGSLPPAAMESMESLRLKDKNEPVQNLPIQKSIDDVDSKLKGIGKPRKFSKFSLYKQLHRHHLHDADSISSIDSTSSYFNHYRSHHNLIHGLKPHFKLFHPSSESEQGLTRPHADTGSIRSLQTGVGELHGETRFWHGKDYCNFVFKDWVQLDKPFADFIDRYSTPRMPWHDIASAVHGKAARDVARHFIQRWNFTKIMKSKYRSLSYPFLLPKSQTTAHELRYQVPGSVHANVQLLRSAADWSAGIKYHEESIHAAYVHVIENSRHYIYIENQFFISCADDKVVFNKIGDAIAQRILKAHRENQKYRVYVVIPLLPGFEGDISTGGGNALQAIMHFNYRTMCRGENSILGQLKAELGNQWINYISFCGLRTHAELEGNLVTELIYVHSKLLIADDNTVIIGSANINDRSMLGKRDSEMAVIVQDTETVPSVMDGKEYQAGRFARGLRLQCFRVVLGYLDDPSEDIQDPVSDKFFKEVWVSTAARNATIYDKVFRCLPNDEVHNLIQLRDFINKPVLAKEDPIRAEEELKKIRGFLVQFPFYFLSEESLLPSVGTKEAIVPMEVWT

[7] = glucagon-like peptide-1 release potency in STC-1, concentration-response, half-maximal inhibitory concentration in the STC-1 line (AID 1117345); format: functional, cell-based
[8] = Potency on glucagon-like peptide 1 release, dose-response in NCI-H716 cell line, half maximal inhibitory concentration (AID 1117344); format: functional, cell-based
[9] = IC50 of insulin release inhibition, rat insulinoma INS-1E line, 5 mM glucose, cell-based (AID 1117331); format: functional

Sequence of Phospholipase D2 (O14939 whole entry): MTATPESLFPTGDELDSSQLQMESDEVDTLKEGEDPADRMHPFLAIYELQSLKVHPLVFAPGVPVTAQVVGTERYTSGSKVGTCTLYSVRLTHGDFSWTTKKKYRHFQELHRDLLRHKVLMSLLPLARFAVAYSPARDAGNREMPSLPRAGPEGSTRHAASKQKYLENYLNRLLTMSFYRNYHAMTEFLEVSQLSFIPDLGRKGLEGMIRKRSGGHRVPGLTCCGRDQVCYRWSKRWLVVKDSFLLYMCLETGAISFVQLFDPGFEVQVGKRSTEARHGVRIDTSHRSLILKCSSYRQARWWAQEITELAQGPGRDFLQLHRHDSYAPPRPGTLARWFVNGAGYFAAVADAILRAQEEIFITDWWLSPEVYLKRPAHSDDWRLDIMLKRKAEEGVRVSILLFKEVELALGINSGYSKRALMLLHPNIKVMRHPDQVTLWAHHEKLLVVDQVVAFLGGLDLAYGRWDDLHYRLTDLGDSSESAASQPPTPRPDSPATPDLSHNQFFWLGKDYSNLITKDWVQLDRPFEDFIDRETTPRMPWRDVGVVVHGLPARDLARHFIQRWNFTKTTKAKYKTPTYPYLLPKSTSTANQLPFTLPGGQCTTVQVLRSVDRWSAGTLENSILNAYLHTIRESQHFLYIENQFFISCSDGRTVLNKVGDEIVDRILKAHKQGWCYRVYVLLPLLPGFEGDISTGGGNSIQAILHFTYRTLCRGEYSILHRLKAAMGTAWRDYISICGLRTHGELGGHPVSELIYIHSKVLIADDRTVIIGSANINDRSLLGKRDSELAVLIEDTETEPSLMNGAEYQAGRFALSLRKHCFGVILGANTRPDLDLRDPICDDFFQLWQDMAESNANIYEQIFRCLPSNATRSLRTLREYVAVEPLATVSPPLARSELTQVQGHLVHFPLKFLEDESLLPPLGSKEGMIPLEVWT
Sequence of G-protein coupled receptor 183 (P32249 whole entry): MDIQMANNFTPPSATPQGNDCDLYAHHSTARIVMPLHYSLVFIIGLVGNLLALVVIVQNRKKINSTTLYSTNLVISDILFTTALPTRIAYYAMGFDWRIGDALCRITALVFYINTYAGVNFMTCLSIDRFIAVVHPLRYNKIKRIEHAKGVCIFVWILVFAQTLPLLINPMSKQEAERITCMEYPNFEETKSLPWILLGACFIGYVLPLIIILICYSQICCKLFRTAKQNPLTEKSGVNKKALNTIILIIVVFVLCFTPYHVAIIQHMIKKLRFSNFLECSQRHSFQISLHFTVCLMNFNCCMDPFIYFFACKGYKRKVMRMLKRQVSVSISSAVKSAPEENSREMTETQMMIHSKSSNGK

- IC50 [1]: 2.94 µM (active)
SMILES: COc1cc(/C=N/Nc2c(F)c(F)nc(F)c2F)cc(OC)c1O

- IC50 [2]: 0.36 µM (active)
SMILES: c1ccc2c(c1)Nc1nc3ccccc3nc1N2

- IC50 [3]: > 100 µM (not active)
SMILES: CCc1ccccc1N(CC(=O)OC)S(C)(=O)=O

- IC50 [4]: 0.00117 µM (active)
SMILES: O=C(/C=C/c1ccc(Cl)c(Cl)c1)N1CCN(C(=O)c2ccc(Cl)cc2)CC1

SMILES: O=C(NCCN1CCC2(CC1)C(=O)NCN2Cc1cccnc1)c1ccc(Cl)c(Cl)c1
- IC50 [5]: 1.24 µM (active)
- IC50 [6]: 20 µM (active)

SMILES: NC(=O)C1(N2CCCCC2)CCN(CCCN2c3ccccc3CCc3ccc(Cl)cc32)CC1 [CLOCAPRAMINE]
- IC50 [7]: > 40 µM (inactive)
- IC50 [8]: 18.3 µM (inactive)
- IC50 [9]: 10.1 µM (inactive)
